Measurements published in patent US11000033B2, “Ketone or oxime compound, and herbicide” (NISSAN CHEMICAL CORPORATION, priority 2014, dated 2021).

Assays:
Format in all cases: in vivo
[1] = system: Echinochloa crus-galli var. crus-galli; experiment: Test Example 3: herbicidal effect by foliage application, Wagner pot (symbol H); details: application herbicide amount 320 g/ha
Outline: (§1)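 Rating at 3 weeks post-spray, by defined criteria. Treatment: emulsion diluted with water to a predetermined amount, applied evenly to foliage of 14-day-old plants raised in alluvial soil flooded 0.1–0.5 cm deep at 25–30 °C, rice co-sown.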

[2] = system: Leptochloa chinensis; experiment: Test Example 3: herbicidal effect by foliage application, Wagner pot (symbol D); details: application herbicide amount 320 g/ha
Outline: as §1

[3] = system: Cyperus difformis; experiment: Test Example 3: herbicidal effect by foliage application, Wagner pot (symbol E); details: application herbicide amount 320 g/ha
Outline: as §1

[4] = system: directly sowed rice plant; experiment: Test Example 3: effect on crop by foliage application, Wagner pot (symbol b); details: application herbicide amount 320 g/ha
Outline: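 Plants are raised from seed in flooded paddy conditions: water stands 0.1–0.5 cm over alluvial soil, and the pot is kept in a greenhouse at 25–30 °C. Species sown are barnyardgrass (E. crus-galli var. crus-galli), Leptochloa chinensis, Cyperus difformis and rice.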

[5] = system: Digitaria ciliaris; experiment: Test Example 4: herbicidal effect by soil treatment (symbol F); details: application herbicide amount 320 g/ha
Excerpt: (§2) Herbicidal Effect Test by Soil Treatment
(§3) Sterilized diluvial soil was placed in a plastic box having a length of 21 cm, a width of 13 cm, and a depth of 7 cm. Each of the seeds of Digitaria ciliaris, Setaria viridis, Echinochloa crus-galli var. crus-galli, Avena fatua, Alopecurus myosuroides, Lolium multiflorum Lam., Apera spica-venti, Abutilon theophrasti, Amaranthus retroflexus, Chenopodium album, Stellaria media, Galium spurium, Veronica persica, corn, soybean, rice, wheat, beet, and rapeseed was sowed in a spot-like manner and was covered with the soil of a thickness of about 1.5 cm. Subsequently, the emulsion agent of the compound present invention prepared in accordance with Formulation Example 2 was diluted with water so as to be a predetermined herbicide amount and the diluted emulsion agent was uniformly applied to the surface of the soil with a small-size spray. The plastic box was placed in a greenhouse of 25° C. to 30° C. to grow plant. 3 weeks later from the herbicide application, the effect to each plant was investigated in accordance with the criteria of Test Example 1.

[6] = system: Setaria viridis; experiment: Test Example 4: herbicidal effect by soil treatment (symbol G); details: application herbicide amount 320 g/ha
Excerpt: as §2, §3

[7] = system: Echinochloa crus-galli var. crus-galli; experiment: Test Example 4: herbicidal effect by soil treatment (symbol H); details: application herbicide amount 320 g/ha
Excerpt: as §2, §3

[8] = system: Avena fatua; experiment: Test Example 4: herbicidal effect by soil treatment (symbol I); details: application herbicide amount 320 g/ha
Excerpt: as §2, §3

[9] = system: Alopecurus myosuroides; experiment: Test Example 4: herbicidal effect by soil treatment (symbol J); details: application herbicide amount 320 g/ha
Excerpt: as §2, §3

[10] = system: Lolium multiflorum Lam.; experiment: Test Example 4: herbicidal effect by soil treatment (symbol K); details: application herbicide amount 320 g/ha
Excerpt: as §2, §3

[11] = system: Apera spica-venti; experiment: Test Example 4: herbicidal effect by soil treatment (symbol L); details: application herbicide amount 320 g/ha
Excerpt: as §2, §3

[12] = system: Abutilon theophrasti; experiment: Test Example 4: herbicidal effect by soil treatment (symbol M); details: application herbicide amount 320 g/ha
Excerpt: as §2, §3

[13] = system: Amaranthus retroflexus; experiment: Test Example 4: herbicidal effect by soil treatment (symbol N); details: application herbicide amount 320 g/ha
Excerpt: as §2, §3

[14] = system: Stellaria media; experiment: Test Example 4: herbicidal effect by soil treatment (symbol P); details: application herbicide amount 320 g/ha
Excerpt: as §2, §3

[15] = system: Veronica persica; experiment: Test Example 4: herbicidal effect by soil treatment (symbol R); details: application herbicide amount 320 g/ha
Excerpt: as §2, §3

[16] = system: corn; experiment: Test Example 4: effect on crop by soil treatment (symbol c); details: application herbicide amount 320 g/ha
Excerpt: as §2
(§4) Sterilized diluvial soil was placed in a plastic box having a length of 21 cm, a width of 13 cm, and a depth of 7 cm. Each of the seeds of Digitaria ciliaris, Setaria viridis, Echinochloa crus-galli var. crus-galli, Avena fatua, Alopecurus myosuroides, Lolium multiflorum Lam., Apera spica-venti, Abutilon theophrasti, Amaranthus retroflexus, Chenopodium album, Stellaria media, Galium spurium, Veronica persica, corn, soybean, rice, wheat, beet, and rapeseed was sowed in a spot-like manner and was covered with the soil of a thickness of about 1.5 cm. […] The plastic box was placed in a greenhouse of 25° C. to 30° C. to grow plant.

[17] = system: soybean; experiment: Test Example 4: effect on crop by soil treatment (symbol d); details: application herbicide amount 320 g/ha
Excerpt: as §2, §4

[18] = system: rice; experiment: Test Example 4: effect on crop by soil treatment (symbol b); details: application herbicide amount 320 g/ha
Excerpt: as §2, §4

[19] = system: wheat; experiment: Test Example 4: effect on crop by soil treatment (symbol e); details: application herbicide amount 320 g/ha
Excerpt: as §2, §4

[20] = system: beet; experiment: Test Example 4: effect on crop by soil treatment (symbol f); details: application herbicide amount 320 g/ha
Excerpt: as §2, §4

[21] = system: rapeseed; experiment: Test Example 4: effect on crop by soil treatment (symbol g); details: application herbicide amount 320 g/ha
Excerpt: as §2, §4

[22] = system: Digitaria ciliaris; experiment: Test Example 5: herbicidal effect by foliage application, plastic box (symbol F); details: 320 g/ha, 3 weeks after application
Outline: (§5)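 Leaf-applied emulsion, water-diluted to a preset herbicide dose, on two-week-old seedlings raised in a 25° C. to 30° C. greenhouse; injury rated at 3 weeks using earlier criteria.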

[23] = system: Setaria viridis; experiment: Test Example 5: herbicidal effect by foliage application, plastic box (symbol G); details: 320 g/ha, 3 weeks after application
Outline: as §5

[24] = system: Echinochloa crus-galli var. crus-galli; experiment: Test Example 5: herbicidal effect by foliage application, plastic box (symbol H); details: 320 g/ha, 3 weeks after application
Outline: as §5

[25] = system: Avena fatua; experiment: Test Example 5: herbicidal effect by foliage application, plastic box (symbol I); details: 320 g/ha, 3 weeks after application
Outline: as §5

[26] = system: Alopecurus myosuroides; experiment: Test Example 5: herbicidal effect by foliage application, plastic box (symbol J); details: 320 g/ha, 3 weeks after application
Outline: as §5

[27] = system: Lolium multiflorum Lam.; experiment: Test Example 5: herbicidal effect by foliage application, plastic box (symbol K); details: 320 g/ha, 3 weeks after application
Outline: as §5

[28] = system: Apera spica-venti; experiment: Test Example 5: herbicidal effect by foliage application, plastic box (symbol L); details: 320 g/ha, 3 weeks after application
Outline: as §5

[29] = system: Abutilon theophrasti; experiment: Test Example 5: herbicidal effect by foliage application, plastic box (symbol M); details: 320 g/ha, 3 weeks after application
Outline: as §5

[30] = system: Amaranthus retroflexus; experiment: Test Example 5: herbicidal effect by foliage application, plastic box (symbol N); details: 320 g/ha, 3 weeks after application
Outline: as §5

[31] = system: Stellaria media; experiment: Test Example 5: herbicidal effect by foliage application, plastic box (symbol P); details: 320 g/ha, 3 weeks after application
Outline: as §5

[32] = system: Galium spurium; experiment: Test Example 5: herbicidal effect by foliage application, plastic box (symbol Q); details: 320 g/ha, 3 weeks after application
Outline: as §5

[33] = system: Veronica persica; experiment: Test Example 5: herbicidal effect by foliage application, plastic box (symbol R); details: 320 g/ha, 3 weeks after application
Outline: as §5

[34] = system: corn; experiment: Test Example 5: effect on crop by foliage application, plastic box (symbol c); details: 320 g/ha, 3 weeks after application
Outline: (§6)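 Diluvial soil, sterilized and boxed (21 × 13 × 7 cm), received spot-sown seed covered by about 1.5 cm soil; plants were then greenhouse-grown at 25–30° C.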

[35] = system: soybean; experiment: Test Example 5: effect on crop by foliage application, plastic box (symbol d); details: 320 g/ha, 3 weeks after application
Outline: as §6

[36] = system: rice plant; experiment: Test Example 5: effect on crop by foliage application, plastic box (symbol b); details: 320 g/ha, 3 weeks after application
Outline: as §6

[37] = system: wheat; experiment: Test Example 5: effect on crop by foliage application, plastic box (symbol e); details: 320 g/ha, 3 weeks after application
Outline: as §6

[38] = system: beet; experiment: Test Example 5: effect on crop by foliage application, plastic box (symbol f); details: 320 g/ha, 3 weeks after application
Outline: as §6

[39] = system: rapeseed; experiment: Test Example 5: effect on crop by foliage application, plastic box (symbol g); details: 320 g/ha, 3 weeks after application
Outline: as §6

CCOC(=O)C(C(=O)C1CCCC1)C1CC(O)=C(c2c(C)cc(C)cc2C)C1=O (stereo not drawn) [2-027]
herbicidal effect on H (Echinochloa crus-galli var. crus-galli), grade 0-5 [1]: 3 (Herbicidal ratio of 40% or higher and lower than 70%)
herbicidal effect on D (Leptochloa chinensis), grade 0-5 [2]: 0 (Herbicidal ratio of 5% or lower (almost no effect))
herbicidal effect on E, grade 0-5 [3]: 0 (Herbicidal ratio of 5% or lower (almost no effect))
effect on crop b (directly sowed rice plant), grade 0-5 [4]: 5 (Herbicidal ratio of 90% or more (almost completely withered))
F: Digitaria ciliaris, herbicidal effect grade [5]: 3 (Herbicidal ratio of 40% or higher and lower than 70%)
G: Setaria viridis, herbicidal effect grade [6]: 5 (Herbicidal ratio of 90% or more (almost completely withered))
H: Echinochloa crus-galli var. crus-galli, herbicidal effect grade [7]: 3 (Herbicidal ratio of 40% or higher and lower than 70%)
I: Avena fatua, herbicidal effect grade [8]: 0 (Herbicidal ratio of 5% or lower (almost no effect))
J: Alopecurus myosuroides, herbicidal effect grade [9]: 1 (Herbicidal ratio of 5% or higher and lower than 20%)
K: Lolium multiflorum Lam., herbicidal effect grade [10]: 2 (Herbicidal ratio of 20% or higher and lower than 40%)
L: Apera spica-venti, herbicidal effect grade [11]: 0 (Herbicidal ratio of 5% or lower (almost no effect))
M: Abutilon theophrasti, herbicidal effect grade [12]: 0 (Herbicidal ratio of 5% or lower (almost no effect))
N: Amaranthus retroflexus, herbicidal effect grade [13]: 0 (Herbicidal ratio of 5% or lower (almost no effect))
P: Stellaria media, herbicidal effect grade [14]: 0 (Herbicidal ratio of 5% or lower (almost no effect))
R: Veronica persica, herbicidal effect grade [15]: 0 (Herbicidal ratio of 5% or lower (almost no effect))
c: corn, effect on crop grade [16]: 1 (Herbicidal ratio of 5% or higher and lower than 20%)
d: soybean, effect on crop grade [17]: 0 (Herbicidal ratio of 5% or lower (almost no effect))
b: directly sowed rice plant, effect on crop grade [18]: 4 (Herbicidal ratio of 70% or higher and lower than 90%)
e: wheat, effect on crop grade [19]: 0 (Herbicidal ratio of 5% or lower (almost no effect))
f: beet, effect on crop grade [20]: 0 (Herbicidal ratio of 5% or lower (almost no effect))
g: rapeseed, effect on crop grade [21]: 0 (Herbicidal ratio of 5% or lower (almost no effect))
F: Digitaria ciliaris, herbicidal effect grade [22]: 0 (Herbicidal ratio of 5% or lower (almost no effect))
G: Setaria viridis, herbicidal effect grade [23]: 5 (Herbicidal ratio of 90% or more (almost completely withered))
H: Echinochloa crus-galli var. crus-galli, herbicidal effect grade [24]: 3 (Herbicidal ratio of 40% or higher and lower than 70%)
I: Avena fatua, herbicidal effect grade [25]: 1 (Herbicidal ratio of 5% or higher and lower than 20%)
J: Alopecurus myosuroides, herbicidal effect grade [26]: 2 (Herbicidal ratio of 20% or higher and lower than 40%)
K: Lolium multiflorum Lam., herbicidal effect grade [27]: 4 (Herbicidal ratio of 70% or higher and lower than 90%)
L: Apera spica-venti, herbicidal effect grade [28]: 0 (Herbicidal ratio of 5% or lower (almost no effect))
M: Abutilon theophrasti, herbicidal effect grade [29]: 0 (Herbicidal ratio of 5% or lower (almost no effect))
N: Amaranthus retroflexus, herbicidal effect grade [30]: 0 (Herbicidal ratio of 5% or lower (almost no effect))
P: Stellaria media, herbicidal effect grade [31]: 0 (Herbicidal ratio of 5% or lower (almost no effect))
Q: Galium spurium, herbicidal effect grade [32]: 0 (Herbicidal ratio of 5% or lower (almost no effect))
R: Veronica persica, herbicidal effect grade [33]: 0 (Herbicidal ratio of 5% or lower (almost no effect))
c: corn, effect on crop grade [34]: 1 (Herbicidal ratio of 5% or higher and lower than 20%)
d: soybean, effect on crop grade [35]: 0 (Herbicidal ratio of 5% or lower (almost no effect))
b: directly sowed rice plant, effect on crop grade [36]: 4 (Herbicidal ratio of 70% or higher and lower than 90%)
e: wheat, effect on crop grade [37]: 0 (Herbicidal ratio of 5% or lower (almost no effect))
f: beet, effect on crop grade [38]: 0 (Herbicidal ratio of 5% or lower (almost no effect))
g: rapeseed, effect on crop grade [39]: 1 (Herbicidal ratio of 5% or higher and lower than 20%)
